Laboratory results: US20210276987A1, “PHARMACEUTICAL AGENTS FOR USE IN SMOKING AND TOBACCO CESSATION” (Washington State University, priority 2018, published 2021)
pIC50: −log10 of the molar value. Where a name gives a salt, the structure may show the parent alone. Read-outs that look alike come from different tables or passages of the source. One block for each molecule: values may come before it.

Legend:
in vitro = conditions: for half-life at 10 μM: human, microsomes
Protocol: In vitro stability studies. […] Half-lives were calculated using the one-phase exponential decay equation (GraphPad).

CYP2A6 [1] = target: T1, CYP2A6 (Homo sapiens, UniProt P11509); conditions: both, human, microsomes, pH 7.4
T1 sequence (P11509 1-494): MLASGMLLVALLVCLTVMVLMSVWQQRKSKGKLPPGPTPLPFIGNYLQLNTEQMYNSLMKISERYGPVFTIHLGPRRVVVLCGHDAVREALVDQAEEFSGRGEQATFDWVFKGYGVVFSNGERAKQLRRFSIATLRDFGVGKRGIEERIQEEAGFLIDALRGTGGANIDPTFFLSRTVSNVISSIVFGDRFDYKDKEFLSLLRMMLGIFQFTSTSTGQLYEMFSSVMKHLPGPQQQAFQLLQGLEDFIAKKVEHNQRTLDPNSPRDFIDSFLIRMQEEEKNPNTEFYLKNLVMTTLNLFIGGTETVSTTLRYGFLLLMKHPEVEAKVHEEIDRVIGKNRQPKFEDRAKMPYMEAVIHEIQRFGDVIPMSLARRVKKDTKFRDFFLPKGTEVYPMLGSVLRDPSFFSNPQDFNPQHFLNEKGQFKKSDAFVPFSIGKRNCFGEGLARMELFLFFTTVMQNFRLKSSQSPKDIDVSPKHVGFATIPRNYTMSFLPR

UGT2B10 = target: T2, UGT2B10 (Homo sapiens, UniProt P36537); test: biochemical; conditions: for IC50: IC50 against UGT2B10 (μM); for pIC50: IC50 against UGT2B10
T2 sequence (P36537 24-528): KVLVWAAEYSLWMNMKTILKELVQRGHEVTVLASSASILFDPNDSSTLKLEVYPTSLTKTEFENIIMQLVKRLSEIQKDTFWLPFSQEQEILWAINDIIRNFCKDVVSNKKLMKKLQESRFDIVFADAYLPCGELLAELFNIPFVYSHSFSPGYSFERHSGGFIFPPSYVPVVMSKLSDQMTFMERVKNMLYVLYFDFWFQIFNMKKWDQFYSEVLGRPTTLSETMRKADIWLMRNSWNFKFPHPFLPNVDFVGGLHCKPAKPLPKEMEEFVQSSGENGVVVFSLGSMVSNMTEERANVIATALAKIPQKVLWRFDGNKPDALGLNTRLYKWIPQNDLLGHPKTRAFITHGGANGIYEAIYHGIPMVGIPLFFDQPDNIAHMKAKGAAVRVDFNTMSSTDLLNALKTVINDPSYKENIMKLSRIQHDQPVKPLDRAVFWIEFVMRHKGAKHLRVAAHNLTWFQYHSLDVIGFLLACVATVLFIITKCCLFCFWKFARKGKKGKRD
Protocol: Initial screening assays were performed as described above for the CYP assays using 1 μM or 10 μM of each of the NAs. The inhibitory effects of each agent against UGT2B10 was performed using the known UGT2B10-specific probe substrate, nicotine, in pooled human liver microsomes. […] Pre-incubations containing 500 μM nicotine and 1 or 10 μM NA were subsequently performed at 37° C. in 50 mM Tris-HCl buffer (pH 7.5, in a final volume of 50 μL) and 10 mM MgCl2 for 5 minutes.

CYP2A6 [2] = target: T1, CYP2A6; test: biochemical; conditions: for IC50: IC50 against CYP2A6 (μM), pooled human liver microsomes; for pIC50: IC50 against CYP2A6
CYP2B6 = target: T3, CYP2B6 (Homo sapiens, UniProt P20813); conditions: Table 8, thiophene and furan analogues
T3 sequence (P20813 1-491): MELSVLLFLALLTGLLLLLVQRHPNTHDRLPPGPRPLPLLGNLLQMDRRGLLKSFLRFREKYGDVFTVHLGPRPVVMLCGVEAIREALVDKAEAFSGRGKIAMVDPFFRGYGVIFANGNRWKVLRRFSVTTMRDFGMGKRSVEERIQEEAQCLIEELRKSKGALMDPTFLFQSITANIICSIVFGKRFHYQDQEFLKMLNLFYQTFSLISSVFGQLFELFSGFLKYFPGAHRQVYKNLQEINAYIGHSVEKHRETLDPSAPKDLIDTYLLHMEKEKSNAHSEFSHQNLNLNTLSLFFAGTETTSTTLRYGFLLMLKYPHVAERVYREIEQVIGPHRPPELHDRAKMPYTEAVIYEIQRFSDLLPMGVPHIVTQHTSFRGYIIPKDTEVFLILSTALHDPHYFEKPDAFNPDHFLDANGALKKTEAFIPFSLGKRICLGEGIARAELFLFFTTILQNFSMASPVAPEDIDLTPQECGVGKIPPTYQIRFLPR

CYP2C8 = target: T4, CYP2C8 (Homo sapiens, UniProt P10632); conditions: Table 8, thiophene and furan analogues
T4 sequence (P10632 1-490): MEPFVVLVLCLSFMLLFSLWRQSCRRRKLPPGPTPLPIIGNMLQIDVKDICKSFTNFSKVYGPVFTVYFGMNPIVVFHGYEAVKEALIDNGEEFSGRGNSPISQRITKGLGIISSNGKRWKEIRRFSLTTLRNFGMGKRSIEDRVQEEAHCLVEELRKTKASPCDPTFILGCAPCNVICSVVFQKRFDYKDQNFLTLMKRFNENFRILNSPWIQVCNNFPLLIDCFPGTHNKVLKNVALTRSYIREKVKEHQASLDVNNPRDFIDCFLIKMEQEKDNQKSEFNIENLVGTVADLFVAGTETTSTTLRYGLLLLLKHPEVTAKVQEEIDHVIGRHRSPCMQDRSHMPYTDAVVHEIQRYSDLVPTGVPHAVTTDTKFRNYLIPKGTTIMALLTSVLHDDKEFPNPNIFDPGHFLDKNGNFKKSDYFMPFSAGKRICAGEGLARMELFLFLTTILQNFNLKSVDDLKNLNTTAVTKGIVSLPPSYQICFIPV

CYP2E1 = CYP2E1 (Homo sapiens, UniProt P05181); conditions: Table 8, thiophene and furan analogues
CYP2E1, sequence (P05181 whole entry): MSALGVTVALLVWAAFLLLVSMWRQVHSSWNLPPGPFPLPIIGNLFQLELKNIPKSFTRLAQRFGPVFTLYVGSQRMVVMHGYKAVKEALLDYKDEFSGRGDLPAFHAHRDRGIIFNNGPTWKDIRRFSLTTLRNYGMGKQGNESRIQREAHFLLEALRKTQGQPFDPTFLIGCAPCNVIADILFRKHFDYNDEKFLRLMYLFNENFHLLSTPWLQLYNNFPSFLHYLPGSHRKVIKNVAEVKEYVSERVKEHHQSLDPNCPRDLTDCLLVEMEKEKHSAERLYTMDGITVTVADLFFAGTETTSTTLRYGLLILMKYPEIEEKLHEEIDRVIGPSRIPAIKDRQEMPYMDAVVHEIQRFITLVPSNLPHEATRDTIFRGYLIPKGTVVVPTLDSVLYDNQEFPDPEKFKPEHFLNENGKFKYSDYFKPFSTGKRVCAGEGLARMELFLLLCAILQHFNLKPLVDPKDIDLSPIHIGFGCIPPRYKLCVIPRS

CYP2C9 = CYP2C9 (Homo sapiens, UniProt P11712); test: CYP2C9 inhibition assay, human liver microsomes, diclofenac probe (cocktail); conditions: Table 8, thiophene and furan analogues
CYP2C9, sequence (P11712 whole entry): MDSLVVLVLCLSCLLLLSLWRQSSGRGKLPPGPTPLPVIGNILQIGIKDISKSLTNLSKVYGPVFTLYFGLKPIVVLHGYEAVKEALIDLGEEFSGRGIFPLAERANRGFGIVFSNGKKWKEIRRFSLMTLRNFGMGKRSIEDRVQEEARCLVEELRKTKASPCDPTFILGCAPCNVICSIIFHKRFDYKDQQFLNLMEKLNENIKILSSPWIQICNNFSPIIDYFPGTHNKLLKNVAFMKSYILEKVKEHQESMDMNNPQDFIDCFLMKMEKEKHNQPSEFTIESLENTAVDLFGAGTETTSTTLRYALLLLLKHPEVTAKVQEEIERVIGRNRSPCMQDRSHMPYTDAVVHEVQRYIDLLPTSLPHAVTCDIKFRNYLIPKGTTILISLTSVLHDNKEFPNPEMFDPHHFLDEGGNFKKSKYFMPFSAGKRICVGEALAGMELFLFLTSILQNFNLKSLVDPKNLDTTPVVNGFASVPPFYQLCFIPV

CYP1A2 = target: T5, CYP1A2 (Homo sapiens, UniProt P05177); test: CYP1A2 inhibition assay, human liver microsomes, phenacetin probe (cocktail); conditions: Table 8, thiophene and furan analogues
T5 sequence (P05177 1-516): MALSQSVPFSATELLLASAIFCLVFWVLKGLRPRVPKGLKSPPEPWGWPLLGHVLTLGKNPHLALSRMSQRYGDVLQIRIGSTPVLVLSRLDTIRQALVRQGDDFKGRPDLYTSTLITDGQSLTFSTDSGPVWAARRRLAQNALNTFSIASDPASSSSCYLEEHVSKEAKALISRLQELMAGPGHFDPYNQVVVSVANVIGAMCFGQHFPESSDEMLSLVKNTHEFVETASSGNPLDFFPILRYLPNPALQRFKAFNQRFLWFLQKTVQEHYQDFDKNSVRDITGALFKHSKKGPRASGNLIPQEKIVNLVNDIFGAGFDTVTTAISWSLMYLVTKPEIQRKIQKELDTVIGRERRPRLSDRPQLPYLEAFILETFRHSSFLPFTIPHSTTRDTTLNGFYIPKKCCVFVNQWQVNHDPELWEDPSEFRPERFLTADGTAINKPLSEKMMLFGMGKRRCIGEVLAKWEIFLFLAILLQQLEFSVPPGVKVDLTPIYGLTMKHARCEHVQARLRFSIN

CYP2C19 = CYP2C19 (Homo sapiens, UniProt P33261); test: CYP2C19 inhibition assay, human liver microsomes, omeprazole probe (cocktail); conditions: Table 8, thiophene and furan analogues
CYP2C19, sequence (P33261 whole entry): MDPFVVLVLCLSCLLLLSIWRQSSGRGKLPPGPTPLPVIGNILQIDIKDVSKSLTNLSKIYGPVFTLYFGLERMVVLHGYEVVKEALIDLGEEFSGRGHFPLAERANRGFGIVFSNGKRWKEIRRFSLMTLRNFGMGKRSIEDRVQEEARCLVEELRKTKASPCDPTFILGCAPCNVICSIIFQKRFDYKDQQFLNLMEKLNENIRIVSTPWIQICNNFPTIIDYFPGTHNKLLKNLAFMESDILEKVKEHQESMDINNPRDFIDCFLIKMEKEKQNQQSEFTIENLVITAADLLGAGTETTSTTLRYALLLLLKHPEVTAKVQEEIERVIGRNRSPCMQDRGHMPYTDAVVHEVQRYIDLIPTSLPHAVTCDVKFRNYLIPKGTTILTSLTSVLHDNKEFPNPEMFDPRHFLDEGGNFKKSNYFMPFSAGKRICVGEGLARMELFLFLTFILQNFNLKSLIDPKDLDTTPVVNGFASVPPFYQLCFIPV

CYP2D6 = CYP2D6 (Homo sapiens, UniProt P10635); test: CYP2D6 inhibition assay, human liver microsomes, dextromethorphan probe (cocktail); conditions: Table 8, thiophene and furan analogues
CYP2D6, sequence (P10635 whole entry): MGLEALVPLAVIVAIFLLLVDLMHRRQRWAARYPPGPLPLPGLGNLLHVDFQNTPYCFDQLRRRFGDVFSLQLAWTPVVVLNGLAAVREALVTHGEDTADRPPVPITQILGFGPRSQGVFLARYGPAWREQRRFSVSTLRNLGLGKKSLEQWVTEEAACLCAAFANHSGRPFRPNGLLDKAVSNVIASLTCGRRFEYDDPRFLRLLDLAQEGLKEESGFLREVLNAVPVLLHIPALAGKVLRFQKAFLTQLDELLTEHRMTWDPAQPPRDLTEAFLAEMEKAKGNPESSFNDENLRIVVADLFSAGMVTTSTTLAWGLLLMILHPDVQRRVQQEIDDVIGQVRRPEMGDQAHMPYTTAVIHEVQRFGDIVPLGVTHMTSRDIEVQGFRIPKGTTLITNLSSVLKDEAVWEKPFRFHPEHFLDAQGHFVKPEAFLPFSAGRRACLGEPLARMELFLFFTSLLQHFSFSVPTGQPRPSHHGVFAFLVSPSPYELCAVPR

[3] = pH 7.4, half-life (T1/2) in human liver microsomes
[4] = Table 9, pooled human liver microsomes, nicotine 500 μM
[5] = Table 5, alkyne linker agents, coumarin […]

Compound: NCc1ccc(-c2cnccc2-c2cncnc2)o1 [Compound AK, (5-(4-(Pyrimidin-5-yl)pyridin-3-yl)furan-2-yl)methanamine Trihydrochloride]
T1/2 (min) in human liver microsomes (in vitro; 10 μM, pH 7.4): >120 min | half-life at 10 μM (in vitro; [3]): > 90 min | pIC50 (CYP2A6 [1]): 5.89

IC50 (UGT2B10; [4]): 770 µM | IC50 (CYP2A6 [2]; [5]): > 10 µM
Compound: NCC#Cc1cncc2ccccc12 [Compound A, 3-(isoquinolin-4-yl)prop-2-yn-1-amine Dihydrochloride]

Compound: NCC#Cc1cnccc1-c1ccncc1 [Compound P, 3-([4,4′-Bipyridin]-3′-yl)prop-2-yn-1-amine Trihydrochloride]
T1/2 (min) in human liver microsomes (in vitro; 10 μM, pH 7.4): 36 min | pIC50 (CYP2A6 [1]): 5.44 | pIC50 (CYP2A6 [2]; human liver microsomes): > 5.00

half-life at 10 μM (in vitro; pH 7.4, T1/2 (min) in human liver microsomes): 11 min | half-life at 10 μM (in vitro; [3]): < 25 min | IC50 ratio CYP2B6/CYP2A6 (CYP2B6): 7.4 | IC50 ratio CYP2C8/CYP2A6 (CYP2C8): 227 | IC50 ratio CYP2E1/CYP2A6 (CYP2E1): 47 | IC50 (CYP2A6 [2]; Table 7, thiophene and furan nicotine analogues, coumarin): 0.11 µM | IC50 ratio CYP2C9/CYP2A6 (CYP2C9): 182 | IC50 ratio CYP1A2/CYP2A6 (CYP1A2): 17 | IC50 ratio CYP2C19/CYP2A6 (CYP2C19): 6.8 | IC50 ratio CYP2D6/CYP2A6 (CYP2D6): 71
Compound: NCc1ccc(-c2cnccc2Cl)s1 [Compound AB, (5-(4-chloropyridin-3-yl)thiophene-2-yl)methanamine Dihydrochloride]

Compound: Cc1ccncc1C#CCN [Compound C, 3-(4-methylpyridin-3-yl)prop-2-yn-1-amine]
pIC50 (UGT2B10): > 4.22 | IC50 (UGT2B10): 58 µM | T1/2 (min) in human liver microsomes (in vitro; pH 7.4): 8.4 min | half-life (T1/2) in human liver microsomes (in vitro; pH 7.4): less than 25 minutes | pIC50 (CYP2A6 [1]): 7.26 | pIC50 (CYP2A6 [2]): > 6.00

IC50 (UGT2B10; [4]): > 1000 µM | pIC50 (UGT2B10; little to no inhibition): < 3.00 | IC50 (CYP2A6 [2]; [5]): > 10 µM
Compound: NCC#Cc1cnc2ccccc2c1 [Compound B, 3-(quinolin-3-yl)prop-2-yn-1-amine]

Compound: Cc1ncccc1C#CCN [Compound F, 3-(2-methylpyridin-3-yl)prop-2-yn-1-amine]
IC50 (UGT2B10; [4]): 286 µM | IC50 (CYP2A6 [2]; [5]): > 10 µM

Compound: NCC#Cc1cnccc1-c1cncnc1 [Compound Q, 3-(4-(Pyrimidin-5-yl)pyridin-3-yl)prop-2-yn-1-amine Trihydrochloride]
T1/2 (min) in human liver microsomes (in vitro; 10 μM, pH 7.4): >120 min | half-life at 10 μM (in vitro; [3]): > 90 min | pIC50 (CYP2A6 [1]): 5.57 | pIC50 (CYP2A6 [2]; human liver microsomes): > 5.00
